This test concerns the target T1, human NK3 receptor (Homo sapiens, UniProt P29371).
T1 construct: expressed in transfected cells; host or cells: HEK293 cells, transiently transfected; membranes
T1 sequence (P29371 1-465): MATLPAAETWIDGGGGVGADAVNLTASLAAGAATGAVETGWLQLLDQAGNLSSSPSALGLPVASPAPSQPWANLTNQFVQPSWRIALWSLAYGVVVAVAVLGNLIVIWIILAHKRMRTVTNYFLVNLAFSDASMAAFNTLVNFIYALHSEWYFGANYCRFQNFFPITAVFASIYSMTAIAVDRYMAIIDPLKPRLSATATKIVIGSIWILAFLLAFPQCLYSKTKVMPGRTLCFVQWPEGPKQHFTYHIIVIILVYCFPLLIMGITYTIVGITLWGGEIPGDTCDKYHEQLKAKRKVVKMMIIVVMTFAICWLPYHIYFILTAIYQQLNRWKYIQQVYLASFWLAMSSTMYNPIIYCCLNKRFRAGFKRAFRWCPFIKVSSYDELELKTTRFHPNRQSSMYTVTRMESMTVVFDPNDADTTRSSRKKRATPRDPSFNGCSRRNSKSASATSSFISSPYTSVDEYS
Nature of the test: [3H]SR142801 competition binding assay. As to the method: [^3H]SR142801 Competition Binding Assay
hNK3 receptor binding experiment were performed using [^3H]SR142801 (Catalog No. TRK1035, specific activity: 74.0 Ci/mmol, Amersham, GE Healthcare UK limited, Buckinghamshire, UK) and membrane isolated from HEK293 cells transiently expressing recombinant human NK3 receptor. After thawing, the membrane homogenates were centrifuged at 48,000×g for 10 min at 4° C., the pellets were resuspended in the 50 mM Tris-HCl, 4 mM MnCl2, 1 μM phosphoramidon, 0.1% BSA binding buffer at pH 7.4 to a final assay concentration of 5 μg protein/well. For inhibition experiments, membranes were incubated with [^3H]SR142801 at a concentration equal to KD value of radioligand and 10 concentrations of the inhibitory compound (0.0003-10 μM) (in a total reaction volume of 500 μl) for 75 min at room temperature (RT). At the end of the incubation, membranes were filtered onto unitfilter (96-well white microplate with bonded GF/C filter preincubated 1 h in 0.3% PEI+0.3% BSA, Packard BioScience, Meriden, Conn.) with a Filtermate 196 harvester (Packard BioScience) and washed 4 times with ice-cold 50 mM Tris-HCl, pH 7.4 buffer. Nonspecific binding was measured in the presence of 10 μM SB222200 for both radioligands. The radioactivity on the filter was counted (5 min) on a Packard Top-count microplate scintillation counter with quenching correction after addition of 45 μl of microscint 40 (Canberra Packard S.A., Zürich, Switzerland) and shaking for 1 h. Inhibition curves were fitted according to the Hill equation: y=100/(1+(x/IC50)^nH), where nH=slope factor using Excel-fit 4 software (Microsoft). IC50 values were derived from the inhibition curve and the affinity constant (Ki) values were calculated using the Cheng-Prussoff equation Ki=IC50/(1+[L]/KD) where [L] is the concentration of radioligand and KD is its dissociation constant at the receptor, derived from the saturation isotherm. All experiments were performed in duplicate and the mean±standard error (SEM) of the individual Ki values was calculated.

The mark [1] stands for this setting: hNK3 Ki, [3H]SR142801 displacement, membranes of HEK293 cells transiently expressing recombinant human NK3 receptor.
[2] abbreviates: [3H]SR142801 displacement, membranes of HEK293 cells transiently expressing recombinant human NK3 receptor, read-out: hNK3 Ki.

pKi: −log10 of the molar value. Where two headings read alike, the source gives them in different places.

The pKi is the negative decadic logarithm of the Ki, by convention in mol/L.

As to `CCN(Cc1ccc(C)cc1)C(=O)C(CCN1CCC2(CC1)OC(=O)Nc1ccc(F)cc12)c1ccc(Cl)c(Cl)c1` (centres unmarked) [Example 18, 2-(3,4-dichlorophenyl)-N-ethyl-4-(6-fluoro-2-oxo-1,2-dihydro-1′H-spiro[3,1-benzoxazine-4,4′-piperidin]-1′-yl)-N-(4-methylbenzyl)butnamide], the pKi under setting [1] is 7.80.

Consider `COc1cc(CN(C)C(=O)C(CCN2CCC3(CC2)OC(=O)N(C)c2ccc(F)cc23)c2ccc(Cl)c(Cl)c2)ccc1OC(F)F` (centres unmarked) [Example 100, 2-(3,4-dichlorophenyl)-N-[4-(difluoromethoxy)-3-methoxybenzyl]-4-(6-fluoro-1-methyl-2-oxo-1,2-dihydro-1′H-spiro[3,1-benzoxazine-4,4′-piperidin]-1′-yl)-N-methyl-butanamide], for which the pKi under setting [1] was 8.59.

As to `COc1ccc(CN(C)C(=O)C(CCN2CCC3(CC2)OC(=O)N(C)c2ccc(F)cc23)c2ccc(Cl)c(Cl)c2)cc1F` (centres unmarked) [Example 99, 2-(3,4-dichlorophenyl)-N-(3-fluoro-4-methoxybenzyl)-4-(6-fluoro-1-methyl-2-oxo-1,2-dihydro-1′H-spiro[3,1-benzoxazine-4,4′-piperidin]-1′-yl)-N-methyl-butanamide], under setting [1], the pKi is 8.62.

For `CN(Cc1cccc(C(F)(F)F)c1)C(=O)C(CCN1CCC2(CC1)OC(=O)Nc1ccc(F)cc12)c1ccc(Cl)c(Cl)c1` (centres unmarked) [Example 79, 2-(3,4-dichlorophenyl)-4-(6-fluoro-2-oxo-1,2-dihydro-1′H-spiro[3,1-benzoxazine-4,4′-piperidin]-1′-yl)-N-methyl-N-[3-(trifluoromethyl)benzyl]butanamide], the pKi under setting [1] is 8.18.

As for `CN(Cc1ccc(-c2ccncc2)cc1)C(=O)C(CCN1CCC2(CC1)OC(=O)Nc1ccc(F)cc12)c1ccc(Cl)c(Cl)c1` (centres unmarked) [Example 72, 2-(3,4-dichlorophenyl)-4-(6-fluoro-2-oxo-1,2-dihydro-1′H-spiro[3,1-benzoxazine-4,4′-piperidin]-1′-yl)-N-methyl-N-(4-pyridin-4-ylbenzyl)butanamide], the pKi under setting [2] is 7.73.

With `CN(Cc1ccc(C(F)(F)F)cc1)C(=O)C(CCN1CCC2(CC1)OC(=O)N(C)c1ccc(F)cc12)c1ccc(Cl)c(Cl)c1` (centres unmarked) [Example 93, 2-(3,4-dichlorophenyl)-4-(6-fluoro-1-methyl-2-oxo-1,2-dihydro-1′H-spiro[3,1-benzoxazine-4,4′-piperidin]-1′-yl)-N-methyl-N-[4-(trifluoromethyl)benzyl]butanamide], the pKi under setting [1] is 9.22.

As for `CN(Cc1ccc(N2CCOCC2)cc1)C(=O)C(CCN1CCC2(CC1)OC(=O)Nc1ccc(F)cc12)c1ccc(Cl)c(Cl)c1` (centres unmarked) [Example 70, 2-(3,4-dichlorophenyl)-4-(6-fluoro-2-oxo-1,2-dihydro-1′H-spiro[3,1-benzoxazine-4,4′-piperidin]-1′-yl)-N-methyl-N-(4-morpholin-4-ylbenzyl)butanamide], the pKi under setting [2] was 7.01.

As to `CN1C(=O)OC2(CCN(CCC(C(=O)NCc3ccc(F)cc3)c3ccc(Cl)c(Cl)c3)CC2)c2cc(F)ccc21` (centres unmarked) [Example 106, 2-(3,4-dichlorophenyl)-N-(4-fluorobenzyl)-4-(6-fluoro-1-methyl-2-oxo-1,2-dihydro-1′H-spiro[3,1-benzoxazine-4,4′-piperidin]-1′-yl)-butanamide], under setting [1], the pKi was 8.57.

Regarding `CCN(Cc1ccc(C)cc1)C(=O)C(CCN1CCC2(CC1)OC(=O)N(C)c1ccc(F)cc12)c1ccc(Cl)c(Cl)c1` (centres unmarked) [Example 39, 2-(3,4-dichlorphenyl)-N-ethyl-4-(6-fluoro-1-methyl-2-oxo-1,2-dihydro-1′H-spiro[3,1-benzoxazine-4,4′-piperidin]-1′-yl)-N-(4-methylbenzyl)butanamide], the pKi under setting [1] was 8.38.

Turning to `Cc1ccc(CN(C)C(=O)C(CCN2CCC3(CC2)OC(=O)Nc2ccc(F)cc23)c2ccc(Cl)c(Cl)c2)cc1` (centres unmarked) [Example 77, 2-(3,4-dichlorophenyl)-4-(6-fluoro-2-oxo-1,2-dihydro-1′H-spiro[3,1-benzoxazine-4,4′-piperidin]-1′-yl)-N-methyl-N-(4-methylbenzyl)butanamide], the pKi under setting [1] was 8.34.

Regarding `O=C1Nc2ccc(F)cc2C2(CCN(CCC(C(=O)NCc3cccc(OC(F)F)c3)c3ccc(Cl)c(Cl)c3)CC2)O1` (centres unmarked) [Example 67, 2-(3,4-dichlorophenyl)-N-[3-(difluoromethoxy)benzyl]4-(6-fluoro-2-oxo-1,2-dihydro-1′H-spiro[3,1-benzoxazine-4,4′-piperidin]-1′-yl)butanamide], under setting [1], the negative logarithm of the Ki (pKi) is 7.72.

Regarding `CN(Cc1cccc(F)c1)C(=O)C(CCN1CCC2(CC1)OC(=O)Nc1ccc(F)cc12)c1ccc(Cl)c(Cl)c1` (centres unmarked) [Example 76, 2-(3,4-dichlorophenyl)-N-(3-fluorobenzyl)-4-(6-fluoro-2-oxo-1,2-dihydro-1′H-spiro[3,1-benzoxazine-4,4′-piperidin]-1′-yl)-N-methylbutanamide], under setting [1], the pKi was 8.34.

Regarding `CN1C(=O)OC2(CCN(CCC(C(=O)NCc3ccccc3OC(F)(F)F)c3ccc(Cl)c(Cl)c3)CC2)c2cc(F)ccc21` (centres unmarked) [Example 91, 2-(3,4-dichlorophenyl)-4-(6-fluoro-1-methyl-2-oxo-1,2-dihydro-1′H-spiro[3,1-benzoxazine-4,4′-piperidin]-1′-yl)-N-[2-(trifluoromethoxy)benzyl]butanamide], the pKi under setting [1] is 8.19.

With `CN1C(=O)OC2(CCN(CCC(C(=O)NCc3cccc(OC(F)F)c3)c3ccc(Cl)c(Cl)c3)CC2)c2cc(F)ccc21` (centres unmarked) [Example 92, 2-(3,4-dichlorophenyl)-N-[3-(difluoromethoxy)benzyl]-4-(6-fluoro-1-methyl-2-oxo-1,2-dihydro-1′H-spiro[3,1-benzoxazine-4,4′-piperidin]-1′-yl)butanamide], the pKi under setting [1] is 8.55.

Regarding `CN(Cc1ccc(C(F)(F)F)cc1)C(=O)C(CCN1CCC2(CC1)OC(=O)Nc1ccc(F)cc12)c1ccc(F)cc1` (centres unmarked) [Example 51, 4-(6-fluoro-2-oxo-1,2-dihydro-1′H-spiro[3,1-benzoxazine-4,4′-piperidin]-1′-yl)-2-(4-fluorophenyl)-N-methyl-N-[4-(trifluoromethyl)benzyl]butanamide], under setting [1], the pKi was 7.49.

Consider `CN(Cc1ccc(C(F)(F)F)cc1)C(=O)C(CCCN1CCC2(CC1)OC(=O)Nc1ccc(F)cc12)c1ccc(Cl)c(Cl)c1` (centres unmarked) [Example 121, 2-(3,4-dichlorophenyl)-5-(6-fluoro-2-oxo-1,2-dihydro-1′H-spiro[3,1-benzoxazine-4,4′-piperidin]-1′-yl)-N-methyl-N-[4-(trifluoromethyl)benzyl]pentanamide], for which, under setting [1], the pKi was 7.19.

In the case of `Cc1ccc(CNC(=O)C(CCN2CCC3(CC2)OC(=O)Nc2ccc(F)cc23)c2ccc(Cl)c(Cl)c2)o1` (centres unmarked) [Example 9, 2-(3,4-dichlorophenyl)-4-(6-fluoro-2-oxo-1,2-dihydro-1′H-spiro[3,1-benzoxazine-4,4′-piperidin]-1′-yl)-N-[(5-methyl-2-furyl)methyl]butanamide], the negative-log Ki (pKi) under setting [2] was 7.04.

As to `O=C1Nc2ccc(F)cc2C2(CCN(CCCC(C(=O)NCc3ccc(F)cc3)c3ccc(Cl)c(Cl)c3)CC2)O1` (centres unmarked) [Example 132, 2-(3,4-dichlorophenyl)-N-(4-fluorobenzyl)-5-(6-fluoro-2-oxo-1,2-dihydro-1′H-spiro[3,1-benzoxazine-4,4′-piperidin]-1′-yl)-pentanamide], the pKi was 7.18.

Regarding `O=C1Nc2ccc(F)cc2C2(CCN(CCC(C(=O)NCc3ccc(Cl)cc3Cl)c3ccc(Cl)c(Cl)c3)CC2)O1` (centres unmarked) [Example 62, N-(2,4-dichlorobenzyl)-2-(3,4-dichlorophenyl)-4-(6-fluoro-2-oxo-1,2-dihydro-1′H-spiro[3,1-benzoxazine-4,4′-piperidin]-1′-yl)butanamide], under setting [2], the pKi was 8.00.

On to `COc1ccc(CNC(=O)C(CCN2CCC3(CC2)OC(=O)N(C)c2ccc(F)cc23)c2ccc(Cl)c(Cl)c2)cc1` (centres unmarked) [Example 107, 2-(3,4-dichlorophenyl)-4-(6-fluoro-1-methyl-2-oxo-1,2-dihydro-1′H-spiro[3,1-benzoxazine-4,4′-piperidin]-1′-yl)-N-(4-methoxybenzyl)butanamide], for which, under setting [1], the pKi was 8.27.

For the origin of these results see patent publication US7470684B2, “Spiropiperidine derivatives as NK3 antagonists” (Hoffmann-La Roche Inc., priority 2007, dated 2008).
